# Legend:
# C57BL/6 mice = assay: Rota-rod test after MPTP; format: in vivo; conditions: AME 25 mg/kg p.o.; MPTP 25 mg/kg i.p. once a day for 7 days; 3 days after final MPTP
# Procedure: (§1) AME (25 mg/kg, p.o) administration was started 4 days (twice daily) before the first injection of MPTP and continued for 7 consecutive days (once a day). MPTP was injected (25 mg/kg, i.p) once a day 1 h after AME treatment for consecutive 7 days.
# The apparatus (Ugo Basile model 7650) consisted of a base platform and a rotating rod with a nonslippery surface. The rod was placed at a height of 15 cm from the base. The rod, 30 cm in length, was divided into 5 equal sections by 6 opaque disks (so that the subjects cannot be distracted by one another). To assess motor performance, the mice were first trained on the apparatus 2 minutes at a rate 4 r.p.m. per 30 s prior to the test. The test was performed 30 minutes after training and an accelerating paradigm was applied at a rate 4 r.p.m. per 30 s, starting from 4 r.p.m. to a maximum speed of 40 r.p.m., then the rotation speed was kept constant at 40 r.p.m. for a maximum of 300 s. The duration for which the animal could maintain balance on the rotating drum was measured as the rotarod latency, with a maximal cut-off time of 300 s.
# tyrosine hydroxylase = assay: Striatal and nigral TH-like immunoreactivity after MPTP (immunocytochemistry); format: in vivo, mice; conditions: AME 25 mg/kg p.o., MPTP 25 mg/kg i.p. x7 days
# Procedure: as §1
# Animals were sacrificed at 3 days after final MPTP-treatment. They were anesthetized with 60% urethane and perfused transcardially with 200 ml of 50 mM phosphate buffered saline (PBS), followed by 50 ml of paraformaldehyde in PBS. The brain were fixed at 4° C. for 24 h in the same fixative and then cryoprotected in 30% sucrose. The brains were sectioned on a horizontal sliding microstome into 35 μm transverse free-floating sections. The immunocytochemistry was performed as described previously (Kim et al., 2000a; Kim et al., 2000b). Briefly, prior to incubation with the primary antibodies, sections were preincubated with 0.3% hydrogen peroxide in PBS for 30 min (to block endogenous peroxidase activity), then in PBS containing 0.4% Triton X-100 for 20 min and 1% normal serum for 20 min. […] The quantitative analyses were performed using a computer-based image analysis system (Optimas version 6.2; Neurolucida Program) (Kim et al., 1999).
# [1] = Kim et al., 1997a; cited from earlier work
# [2] = system: glutathione peroxidase (GPx); conditions: Kim et al., 1996; cited from earlier work
# [3] = Kim et al., 1997b; cited from earlier work
smiles,measurement,setting,value
"CC(=O)Oc1ccccc1C(=O)Oc1c(C)occc1=O [AME, 3-(2-methyl-4-pyronyl)-2-acetyloxybenzoate]",effect on MPTP-induced impairment in rota-rod performance,C57BL/6 mice,significantly attenuated
same,effect on MPTP-induced decrease in striatal TH-IR,tyrosine hydroxylase; striatum,significantly attenuated these decreases in TH-IR
same,effect on MPTP-induced decrease in substantia nigra TH-IR,tyrosine hydroxylase; substantia nigra,significantly attenuated these decreases in TH-IR
same,gastrointestinal damage,[1],negligible gastrointestinal damage
same,activity of glutathione peroxidase (GPx),[2],elevating the activity of glutathione peroxidase (GPx)
same,neuroexcitotoxicity,[3],attenuates neuroexcitotoxicity
